Test results from patent US7884136B2, “Modified-release formulations of a bupropion salt” (Biovail Laboratories International S.R.L., priority 2005, dated 2011).

Assays:
Type in all cases: physicochemical
[1] = Shelf life stability program of bupropion HBr, 25° C./60% RH, 3 and 6 months, HPLC; conditions: 25° C./60% RH, 3 and 6 months
Description: The stability of bupropion HBr was studied over a longer term under conditions meant to approximate standard storage or shelf conditions. Samples were prepared in closed containers and subjected to long-term storage at 25° C.+2° C. and 60%+5% RH in a stability chamber. The samples were analyzed by HPLC prior to being placed in the stability chamber (time 0) and after 3 months and 6 months. The amounts of the main degradation products present at time 0 were compared with the amounts present at 3 months and 6 months. As shown in Table 77-79 three different batches of bupropion HBr were tested. As in Example 10 each sample was tested under two HPLC assay conditions to identify 6 impurities or groups of impurities as described in Example 10.

[2] = pH of 0.5% aqueous solution of bupropion salts
Description: The eight salts were first evaluated by HPLC, KF, pH and DSC for purity, water content, aqueous pH and possible polymorphs.
The salts were analysed by DSC (at 10° C./min from 30° C. up to 400° C.) and the pH (aq. 0.5%), and the moisture content by KF were also measured. The TGA was performed on the HCl, maleate, tosylate and HBr salts.

[3] = Accelerated stability study of bupropion HBr, closed bottles, 40° C./75% RH, 3 and 6 months, HPLC; conditions: 40° C./75% RH
Description: The samples were prepared in closed bottles and placed in the stability chamber. HPLC analysis was conducted on the samples prior to placing them in the stability chamber (time 0), and after 3 months and 6 months. The amounts of the main degradation products present at time 0 were compared with those amounts present after 3 months and 6 months. […] For each sample tested, at each time period, two different HPLC assays were run. The first assay labelled chromatographic purity A, measured the percentage of three impurities 3′chloropropiophenone, 3′-Chloro-2-bromopropiophenone and 3′-Chlorobenzoic acid. The second assay, labelled chromatographic purity B, measured the percentage of 2-N-(tert-Butyl)-aminopropiophenone, a single unknown impurity and the total unknown impurities.

Br.CC(NC(C)(C)C)C(=O)c1cccc(Cl)c1 (stereo not shown) [Bupropion HBr, bupropion hydrobromide]
Other impurities, trend [1]: did not show an increasing trend over time
Impurity 3′-chloropropiophenone, trend ([1]; three batches): increased slightly over time
pH (aq. 0.5%), Original (Initial APIs) ([2]; 0.5% aqueous solution, original API salts): 5.92
pH (aq. 0.5%) ([2]; Table 3, supplier API): 5.92
Total percentage of impurities, change ([3]; 3-month and 6-month): did not change
Impurity 3′-chloropropiophenone, trend ([3]; 3 and 6 months, three batches): slight increase
Stability under the accelerated stability test conditions ([3]; 6 months): highly stable
